Measured values reported in patent US20170107179A1 (Tetraphase Pharmaceuticals, Inc., priority 2010, published 2017).

Legend:
E. coli DH10B EC971 LacZ = experiment: MIC, E. coli DH10B recombinantly expressing control gene; conditions: E. coli DH10B, arabinose-induced, ampicillin in medium
[1] = tested on: E. coli DH10B EC1153 Tet(X); experiment: MIC, E. coli DH10B recombinantly expressing tetracycline-resistance gene; conditions: arabinose-induced, ampicillin in medium
E. coli DH10B EC969 TetM = experiment: as above; conditions: arabinose-induced, ampicillin in medium
E. coli DH10B EC970 TetK = experiment: as above; conditions: arabinose-induced, ampicillin in medium
[2] = tested on: E. coli DH10B EC1082 TetA; experiment: as above; conditions: arabinose-induced, ampicillin in medium
[3] = tested on: E. coli DH10B EC1083 TetB; experiment: as above; conditions: arabinose-induced, ampicillin in medium
Gram-positive pathogens = experiment: Broth microdilution MIC, respiratory/skin pathogens (Table 12); conditions: E. faecalis, VAN S (n = 53)
S. aureus Smith = experiment: Mouse systemic infection (septicemia) model, CD-1 mice; conditions: Staphylococcus aureus, in Mus musculus, 48 h; for responders at 3 mg/kg: iv, read-out: Percent survival at 48 hours, IV (3 mg/kg); for responders at 30 mg/kg: po, read-out: Percent survival at 48 hours, PO (30 mg/kg)

CO/N=C(\C(=O)N[C@@H]1C(=O)N2C(C(=O)O)=C(CSc3nc(=O)c(=O)[nH]n3C)CS[C@H]12)c1csc(N)n1 [Ceftriaxone] was tested, and the “MIC EC971 LacZ” value (E. coli DH10B EC971 LacZ) was 0.125, the “MIC EC1153 Tet(X)” value [1] was 0.125 and the “MIC EC969 TetM” value (E. coli DH10B EC969 TetM) was 0.5. For the same compound, the “MIC EC970 TetK” value (E. coli DH10B EC970 TetK) was 0.0625, the “MIC EC1082 TetA” value [2] was 0.0625 and the “MIC EC1083 TetB” value [3] was 0.0625.

For CCC[C@@H]1C[C@@H](C(=O)N[C@@H]([C@H]2O[C@H](SC)[C@H](O)[C@@H](O)[C@H]2O)[C@H](C)Cl)N(C)C1 [Clindarnycin], the MIC50 (Gram-positive pathogens) was greater than 2 µg/mL and the MIC90 (Gram-positive pathogens) was greater than 2 µg/mL.

With CC(C)N1Cc2c(O)c3c(c(F)c2C1)C[C@H]1C[C@H]2[C@H](N(C)C)C(O)=C(C(N)=O)C(=O)[C@@]2(O)C(O)=C1C3=O [Compound 143] the responders at 3 mg/kg (S. aureus Smith) was 83% and the responders at 30 mg/kg (S. aureus Smith) was 100%.

CN(C)[C@@H]1C(O)=C(C(N)=O)C(=O)[C@@]2(O)C(O)=C3C(=O)c4c(O)c5c(c(Cl)c4C[C@H]3C[C@@H]12)CN(C(C)(C)C)C5 [Compound 144] gave a responders at 3 mg/kg (S. aureus Smith) of 50% and a responders at 30 mg/kg (S. aureus Smith) of 0%.

CN(C)[C@@H]1C(O)=C(C(N)=O)C(=O)[C@@]2(O)C(O)=C3C(=O)c4c(O)c5c(c(F)c4C[C@H]3C[C@@H]12)CN(C(=O)CN1CC[C@H](F)C1)C5 [Compound 147] was tested, and the responders at 3 mg/kg (S. aureus Smith) was 83% and the responders at 30 mg/kg (S. aureus Smith) was 0%.

In the case of CCCN1Cc2c(O)c3c(c(Cl)c2C1)C[C@H]1C[C@H]2[C@H](N(C)C)C(O)=C(C(N)=O)C(=O)[C@@]2(O)C(O)=C1C3=O [Compound 149], the responders at 3 mg/kg (S. aureus Smith) is reported as 17% and the responders at 30 mg/kg (S. aureus Smith) is reported as 0%.

Work on CCC(C)(C)N1Cc2c(O)c3c(c(Cl)c2C1)C[C@H]1C[C@H]2[C@H](N(C)C)C(O)=C(C(N)=O)C(=O)[C@@]2(O)C(O)=C1C3=O [Compound 150] yielded a responders at 3 mg/kg (S. aureus Smith) of 0% and a responders at 30 mg/kg (S. aureus Smith) of 0%.

CCCN1CCc2c(O)c3c(c(F)c2C1)C[C@H]1C[C@H]2[C@H](N(C)C)C(O)=C(C(N)=O)C(=O)[C@@]2(O)C(O)=C1C3=O [Compound 304] showed a responders at 3 mg/kg (S. aureus Smith) of 0% and a responders at 30 mg/kg (S. aureus Smith) of 17%.

With CC(C)CN1CC(=O)Nc2c(O)c3c(c(F)c2C1)C[C@H]1C[C@H]2[C@H](N(C)C)C(O)=C(C(N)=O)C(=O)[C@@]2(O)C(O)=C1C3=O [Compound 400] the responders at 3 mg/kg (S. aureus Smith) was 100% and the responders at 30 mg/kg (S. aureus Smith) was 0%.
